Results on 13 compounds are retold here after article PMC9402538, “Rational design of a sensitivity-enhanced tracer for discovering efficient APC–Asef inhibitors” (Nature Communications, 2022).

Where two headings read alike, the source gives them in different places. Where a SMILES comes first, the peptide text is derived from it. [ ]: non-standard residue; d: D form. The star is where a group is joined. Cyclohexanecarbonyl = O=C(C1CCCCC1)*; Cyclopentanecarbonyl = O=C(C1CCCC1)*; Benzoyl(4-OMe) = COc1ccc(C(=O)*)cc1; Benzoyl(4-Me) = Cc1ccc(C(=O)*)cc1; Ala(cPr) = N[C@@H](CC1CC1)C(=O)O; Oxazole2carbonyl = O=C(c1ncco1)*; Cha = N[C@@H](CC1CCCCC1)C(=O)O; Isonicotinoyl = O=C(c1ccncc1)*; hLeu = CC(C)CC[C@H](N)C(=O)O; Nicotinoyl = O=C(c1cccnc1)*; 2Furoyl = O=C(c1ccco1)*; Acryloyl = C=CC(=O)*; X3 = O=C(c1ccncn1)*; Mpa = O=C(O)CCS

For this experiment, the target named is T1, APC (303–739) (Homo sapiens, UniProt P25054).
T1 sequence (P25054 303-739): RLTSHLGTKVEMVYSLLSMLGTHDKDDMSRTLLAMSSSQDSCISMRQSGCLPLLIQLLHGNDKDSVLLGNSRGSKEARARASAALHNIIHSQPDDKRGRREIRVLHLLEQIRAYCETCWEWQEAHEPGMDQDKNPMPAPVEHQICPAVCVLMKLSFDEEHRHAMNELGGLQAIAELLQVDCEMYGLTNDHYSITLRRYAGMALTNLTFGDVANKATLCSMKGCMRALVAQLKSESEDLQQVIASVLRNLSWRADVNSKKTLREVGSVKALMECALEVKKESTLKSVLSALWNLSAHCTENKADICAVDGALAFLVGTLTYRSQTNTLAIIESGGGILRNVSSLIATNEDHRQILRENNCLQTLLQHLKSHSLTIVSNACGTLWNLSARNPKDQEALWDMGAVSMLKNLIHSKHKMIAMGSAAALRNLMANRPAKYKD
The experiment can be described thus: FP competitive assay using tracer 7. It is filed as binding. On the procedure: FITC-labeled tracer peptides were obtained from Changzhou Kanglong Biotech Ltd. (Changzhou, Jiangsu, China). […]. The FP signal changes upon tracer binding were measured after 1.5 h of incubation using a Synergy neo microplate reader (BioTek Instruments, Inc.) and plotted against the protein concentration. The corresponding EC50 values were generated by fitting the curves with a nonlinear regression model. […]. To make a working solution, APC (303–739) was diluted in FP buffer (50 mM HEPES, pH 7.5, 300 mM NaCl, 1 mM EDTA, 1 mM DTT). The diluted APC protein (91 μL) was combined with a serial dilution of peptides (4 μL) and incubated at room temperature for 1 h, followed by the addition of 5 μL of 400 nM tracer 7. The FP signals were measured after 1.5 h of incubation at room temperature using a Synergy neo microplate reader. Three controls were included on each plate, i.e., blank (without protein and tracer), 100% inhibition (free tracer only), and 0% inhibition (protein/tracer complex only) controls. All experiments were performed in triplicate. The IC50 values of peptides were calculated by nonlinear regression analysis using GraphPad Prism 7.0 software.

Where [1] appears, read: Supplementary Table 4, read-out: IC50, Tracer 7.
Where [2] appears, read: Repeat 1, Table 3 source data, read-out: IC50(μM) Repeat 1.
[3] abbreviates: Repeat 2, Table 3 source data, read-out: IC50(μM) Repeat 2.
[4] abbreviates: Repeat 3, Table 3 source data, read-out: IC50(μM) Repeat 3.
Where [5] appears, read: mean of 3 repeats, Table 3 source data, read-out: IC50(μM) mean.
The mark [6] stands for this setting: tracer 7, mean of three repeats, read-out: IC50 mean.
The mark [7] stands for this setting: tracer 7, read-out: IC50 Repeat 1.
Setting [8] is: tracer 7, read-out: IC50 Repeat 2.
Where [9] appears, read: tracer 7, read-out: IC50 Repeat 3.

As usually defined, the IC50 is the concentration at which inhibition is half-maximal. For `CC(C)C[C@H](NC(=O)[C@H](CO)NC(=O)[C@H](CCC(=O)O)NC(=O)CNC(=O)[C@H](C)NC(=O)c1ncco1)C(=O)N[C@@H](Cc1ccc(O)cc1)C(=O)N[C@@H](CCC(=O)O)C(N)=O` [MAI-455] (Oxazole2carbonyl-AGESLYE-NH2), the 50% inhibitory concentration (IC50) under setting [1] came to 0.86 ± 0.03 µM.

`CC(C)C[C@H](NC(=O)[C@H](CO)NC(=O)[C@H](CCC(=O)O)NC(=O)CNC(=O)[C@H](C)NC(=O)c1ccncn1)C(=O)N[C@@H](Cc1ccc(O)cc1)C(=O)N[C@@H](CCC(=O)O)C(N)=O` [MAI-464] (X3-AGESLYE-NH2): the IC50 under setting [1] came to 0.22 ± 0.01 µM.

As for `C=CC(=O)N[C@@H](C)C(=O)NCC(=O)N[C@@H](CCC(=O)O)C(=O)N[C@@H](CO)C(=O)N[C@@H](CC(C)C)C(=O)N[C@@H](Cc1ccc(O)cc1)C(=O)N[C@@H](CCC(=O)O)C(N)=O` [MAI-501] (Acryloyl-AGESLYE-NH2), the half-inhibitory concentration (IC50) came to 29.9 µM under setting [2], 19.1 µM under setting [3], 22 µM under setting [4] and 23.7 µM under setting [5].

Take `CC(C)C[C@H](NC(=O)[C@H](CO)NC(=O)[C@H](CCC(=O)O)NC(=O)CNC(=O)[C@H](C)NC(=O)CCS)C(=O)N[C@@H](Cc1ccc(O)cc1)C(=O)N[C@@H](CCC(=O)O)C(N)=O` [MAI-502] ([Mpa]AGESLYE-NH2): the 50% inhibitory concentration (IC50) came out at 2.46 µM under setting [2], 1.52 µM under setting [3], 2.21 µM under setting [4] and 2.06 µM under setting [5].

As for `CC(C)C[C@H](NC(=O)[C@H](CO)NC(=O)[C@H](CCC(=O)O)NC(=O)CNC(=O)[C@H](C)NC(=O)C1CCCC1)C(=O)N[C@@H](Cc1ccc(O)cc1)C(=O)N[C@@H](CCC(=O)O)C(N)=O` [MAI-503] (Cyclopentanecarbonyl-AGESLYE-NH2), the concentration for half-maximal inhibition (IC50) is 7.09 µM under setting [2], 5.22 µM under setting [3], 5.07 µM under setting [4] and 5.79 µM under setting [5].

Consider `CC(C)C[C@H](NC(=O)[C@H](CO)NC(=O)[C@H](CCC(=O)O)NC(=O)CNC(=O)[C@H](C)NC(=O)C1CCCCC1)C(=O)N[C@@H](Cc1ccc(O)cc1)C(=O)N[C@@H](CCC(=O)O)C(N)=O` [MAI-504] (Cyclohexanecarbonyl-AGESLYE-NH2), for which the IC50 under setting [2] came out at 2.24 µM, the IC50 under setting [3] was determined as 1.66 µM, the IC50 under setting [4] was 1.59 µM and the 50% inhibitory concentration (IC50) under setting [5] is 1.83 µM.

`CC(C)C[C@H](NC(=O)[C@H](CO)NC(=O)[C@H](CCC(=O)O)NC(=O)CNC(=O)[C@H](C)NC(=O)c1ccco1)C(=O)N[C@@H](Cc1ccc(O)cc1)C(=O)N[C@@H](CCC(=O)O)C(N)=O` [MAI-506] (2Furoyl-AGESLYE-NH2): the IC50 by setting is: under setting [2], 0.323 µM; under setting [3], 0.419 µM; under setting [4], 0.457 µM; under setting [5], 0.4 µM.

`CC(C)C[C@H](NC(=O)[C@H](CO)NC(=O)[C@H](CCC(=O)O)NC(=O)CNC(=O)[C@H](C)NC(=O)c1cccnc1)C(=O)N[C@@H](Cc1ccc(O)cc1)C(=O)N[C@@H](CCC(=O)O)C(N)=O` [MAI-513] (Nicotinoyl-AGESLYE-NH2): the IC50 reads like this: under setting [2], 0.234 µM; under setting [3], 0.331 µM; under setting [4], 0.318 µM; under setting [5], 0.294 µM.

Take `CC(C)C[C@H](NC(=O)[C@H](CO)NC(=O)[C@H](CCC(=O)O)NC(=O)CNC(=O)[C@H](C)NC(=O)c1ccncc1)C(=O)N[C@@H](Cc1ccc(O)cc1)C(=O)N[C@@H](CCC(=O)O)C(N)=O` [MAI-514] (Isonicotinoyl-AGESLYE-NH2): the IC50 under setting [2] was 0.116 µM, the IC50 under setting [3] worked out at 0.128 µM, the IC50 under setting [4] is 0.0999 µM and the IC50 under setting [5] is 0.114 µM.

For the compound `Cc1ccc(C(=O)N[C@@H](C)C(=O)NCC(=O)N[C@@H](CCC(=O)O)C(=O)N[C@@H](CO)C(=O)N[C@@H](CC(C)C)C(=O)N[C@@H](Cc2ccc(O)cc2)C(=O)N[C@@H](CCC(=O)O)C(N)=O)cc1` [MAI-515] ({Benzoyl(4-Me)}-AGESLYE-NH2), the IC50 by setting is: under setting [2], 0.261 µM; under setting [3], 0.204 µM; under setting [4], 0.254 µM; under setting [5], 0.239 µM.

As to `COc1ccc(C(=O)N[C@@H](C)C(=O)NCC(=O)N[C@@H](CCC(=O)O)C(=O)N[C@@H](CO)C(=O)N[C@@H](CCC(C)C)C(=O)N[C@@H](Cc2ccc(O)cc2)C(=O)N[C@@H](CCC(=O)O)C(N)=O)cc1` [MAI-517] ({Benzoyl(4-OMe)}-AGES[hLeu]YE-NH2), the IC50 runs as follows: under setting [6], 0.0247 µM; under setting [7], 0.0255 µM; under setting [8], 0.0285 µM; under setting [9], 0.0202 µM.

Regarding `COc1ccc(C(=O)N[C@@H](C)C(=O)NCC(=O)N[C@@H](CCC(=O)O)C(=O)N[C@@H](CO)C(=O)N[C@@H](CC2CC2)C(=O)N[C@@H](Cc2ccc(O)cc2)C(=O)N[C@@H](CCC(=O)O)C(N)=O)cc1` [MAI-518] ({Benzoyl(4-OMe)}-AGES[Ala(cPr)]YE-NH2), the IC50 reads like this: under setting [6], 0.0449 µM; under setting [7], 0.0454 µM; under setting [8], 0.047 µM; under setting [9], 0.0424 µM.

On to `COc1ccc(C(=O)N[C@@H](C)C(=O)NCC(=O)N[C@@H](CCC(=O)O)C(=O)N[C@@H](CO)C(=O)N[C@@H](CC2CCCCC2)C(=O)N[C@@H](Cc2ccc(O)cc2)C(=O)N[C@@H](CCC(=O)O)C(N)=O)cc1` [MAI-520] ({Benzoyl(4-OMe)}-AGES[Cha]YE-NH2), for which the IC50 reads like this: under setting [6], 0.0509 µM; under setting [7], 0.0544 µM; under setting [8], 0.0551 µM; under setting [9], 0.0432 µM.
